Measurements taken from US8471005B2 (Cephalon, Inc., priority 2008, dated 2013).

Assays:
ALK = biological target: T1, ALK (Homo sapiens, UniProt Q9UM73); experiment: ALK Kinase Assay (ELISA/TRF, PLC-γ substrate); assay type: biochemical; details: ALK kinase inhibition, 1 μM ATP; read-out: ALK Potency
T1 construct: host or cells: baculovirus expression system
In short: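 IC50 values derive from percent inhibition plotted against log10 compound concentration and fitted to a variable-slope sigmoidal equation. The underlying reaction used 30 ng/ml ALK acting on immobilized PLC-γ (10 μg/mL in TBS) at 37° C for 15 minutes, read with Eu-N1 PT66 antibody.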

JAK2 = biological target: T2, JAK2 (Homo sapiens, UniProt O60674); experiment: Recombinant Human JAK2 Kinase Assay (TRF); assay type: biochemical; details: JAK2 kinase inhibition, 0.2 μM ATP; read-out: JAK2 Potency
T2 construct: host or cells: baculovirus expression system
In short: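 Baculovirus-expressed JAK2 (15 ng/ml) phosphorylated a biotinylated 15-mer peptide captured on Neutravidin, in 20 mM HEPES pH 7.2, 0.2 μM ATP, 1 mM MnCl2, 0.1% BSA, 2.5% DMSO final, 20 min at room temperature. Phosphoproduct detected by time-resolved fluorescence with Eu-N1-labelled PY100 antibody.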

T2 sequence (O60674 whole entry): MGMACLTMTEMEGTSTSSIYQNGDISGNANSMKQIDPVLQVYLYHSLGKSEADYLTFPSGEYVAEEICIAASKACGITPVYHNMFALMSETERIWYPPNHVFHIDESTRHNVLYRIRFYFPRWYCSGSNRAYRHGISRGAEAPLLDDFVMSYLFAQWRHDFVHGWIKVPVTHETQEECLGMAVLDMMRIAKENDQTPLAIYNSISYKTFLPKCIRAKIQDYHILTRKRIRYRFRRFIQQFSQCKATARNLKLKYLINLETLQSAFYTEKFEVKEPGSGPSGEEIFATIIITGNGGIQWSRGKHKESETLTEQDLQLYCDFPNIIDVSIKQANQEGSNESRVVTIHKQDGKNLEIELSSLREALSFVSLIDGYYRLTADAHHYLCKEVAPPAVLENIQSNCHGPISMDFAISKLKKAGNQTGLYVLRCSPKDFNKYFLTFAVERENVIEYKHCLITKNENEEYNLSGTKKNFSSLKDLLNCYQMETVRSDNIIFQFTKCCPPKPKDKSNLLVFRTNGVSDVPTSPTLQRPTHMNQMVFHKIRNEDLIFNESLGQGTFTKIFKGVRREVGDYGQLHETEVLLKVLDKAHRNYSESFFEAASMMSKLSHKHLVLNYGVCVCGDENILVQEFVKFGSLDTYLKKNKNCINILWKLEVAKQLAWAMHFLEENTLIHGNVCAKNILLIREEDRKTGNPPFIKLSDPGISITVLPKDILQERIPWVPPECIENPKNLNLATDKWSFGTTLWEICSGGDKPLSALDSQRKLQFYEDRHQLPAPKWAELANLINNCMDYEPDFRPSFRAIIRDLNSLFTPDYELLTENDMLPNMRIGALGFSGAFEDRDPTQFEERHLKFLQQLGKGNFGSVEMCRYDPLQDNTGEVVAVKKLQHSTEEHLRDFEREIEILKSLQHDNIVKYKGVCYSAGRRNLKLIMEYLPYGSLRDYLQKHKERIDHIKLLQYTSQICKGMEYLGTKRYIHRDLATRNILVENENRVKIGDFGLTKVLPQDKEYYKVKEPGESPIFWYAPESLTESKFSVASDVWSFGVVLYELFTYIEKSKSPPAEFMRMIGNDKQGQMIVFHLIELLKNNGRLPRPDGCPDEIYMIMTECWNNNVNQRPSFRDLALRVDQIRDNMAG
T1 sequence (Q9UM73 19-1620): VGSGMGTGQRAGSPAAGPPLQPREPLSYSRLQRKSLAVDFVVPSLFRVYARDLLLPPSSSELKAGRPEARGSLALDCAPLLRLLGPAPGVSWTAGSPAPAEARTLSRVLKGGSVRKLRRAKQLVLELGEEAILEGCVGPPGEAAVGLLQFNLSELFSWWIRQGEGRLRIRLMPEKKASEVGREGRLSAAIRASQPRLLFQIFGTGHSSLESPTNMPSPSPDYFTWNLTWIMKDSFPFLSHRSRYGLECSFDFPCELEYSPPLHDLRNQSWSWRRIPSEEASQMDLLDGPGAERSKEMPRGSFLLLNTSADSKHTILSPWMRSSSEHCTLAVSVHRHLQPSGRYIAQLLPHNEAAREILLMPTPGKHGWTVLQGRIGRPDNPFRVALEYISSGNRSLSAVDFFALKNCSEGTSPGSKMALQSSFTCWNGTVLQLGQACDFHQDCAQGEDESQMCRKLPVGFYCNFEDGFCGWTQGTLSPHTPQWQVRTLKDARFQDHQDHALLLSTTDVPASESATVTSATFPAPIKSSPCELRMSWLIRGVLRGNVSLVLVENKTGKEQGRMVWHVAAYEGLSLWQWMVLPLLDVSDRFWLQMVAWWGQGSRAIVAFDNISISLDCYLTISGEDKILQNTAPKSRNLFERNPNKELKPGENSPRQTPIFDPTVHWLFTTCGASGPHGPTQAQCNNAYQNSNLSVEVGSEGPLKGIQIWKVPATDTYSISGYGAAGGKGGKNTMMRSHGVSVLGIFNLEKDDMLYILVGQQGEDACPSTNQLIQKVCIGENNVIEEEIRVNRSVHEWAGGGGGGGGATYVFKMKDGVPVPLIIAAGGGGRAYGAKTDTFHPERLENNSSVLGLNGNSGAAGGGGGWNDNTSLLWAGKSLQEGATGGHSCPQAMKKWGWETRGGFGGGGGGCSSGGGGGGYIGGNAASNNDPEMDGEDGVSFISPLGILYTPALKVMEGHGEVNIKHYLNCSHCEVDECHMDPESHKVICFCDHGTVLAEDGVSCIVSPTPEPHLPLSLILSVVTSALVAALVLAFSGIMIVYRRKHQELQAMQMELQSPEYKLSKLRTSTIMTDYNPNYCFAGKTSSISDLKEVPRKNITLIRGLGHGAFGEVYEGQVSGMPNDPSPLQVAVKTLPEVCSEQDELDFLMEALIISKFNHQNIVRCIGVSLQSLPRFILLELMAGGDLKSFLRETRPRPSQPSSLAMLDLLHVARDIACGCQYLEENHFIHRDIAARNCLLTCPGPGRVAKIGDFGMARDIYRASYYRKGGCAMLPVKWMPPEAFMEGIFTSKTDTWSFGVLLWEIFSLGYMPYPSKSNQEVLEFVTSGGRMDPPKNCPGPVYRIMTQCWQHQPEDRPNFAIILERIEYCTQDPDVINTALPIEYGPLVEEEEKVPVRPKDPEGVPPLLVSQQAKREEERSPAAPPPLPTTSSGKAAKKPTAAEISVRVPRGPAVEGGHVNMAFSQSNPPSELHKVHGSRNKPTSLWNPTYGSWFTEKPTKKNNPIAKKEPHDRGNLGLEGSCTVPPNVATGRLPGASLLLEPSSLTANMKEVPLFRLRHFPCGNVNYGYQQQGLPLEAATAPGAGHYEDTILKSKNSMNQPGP

SMILES | IC50 (ALK) | IC50 (JAK2)
CS(=O)(=O)c1cccc(-c2ccc3cnc(Nc4ccc(Cl)c(OC[C@H]5CCCN5)c4)nn23)c1 [Example 1021, [4-Chloro-3-((R)-1-pyrrolidin-2-ylmethoxy)-phenyl]-[7-(3-methanesulfonyl-phenyl)-pyrrolo[2,1-f][1,2,4]triazin-2-yl]-amine] | 1000 to 10000 nM | < 100 nM
COc1ccc(Cl)cc1-c1ccc2cnc(Nc3ccc(C4CCN(CC(N)=O)CC4)cc3)nn12 [Example 1024] | < 100 nM | < 100 nM
CS(=O)(=O)c1cccc(-c2ccc3cnc(Nc4ccc(C5CCNCC5)nc4)nn23)c1 [Example 1025, (1′,2′,3′,4′,5′,6′-Hexahydro-[2,4′]bipyridinyl-5-yl)-[7-(3-methanesulfonyl-phenyl)-pyrrolo[2,1-f][1,2,4]triazin-2-yl]-amine] | 100 to 1000 nM | < 100 nM
COc1ccccc1-c1ccc2cnc(Nc3ccc(C4CCNCC4)nc3)nn12 [Example 1026, (1′,2′,3′,4′,5′,6′-Hexahydro-[2,4]bipyridinyl-5-yl)-[7-(2-methoxy-phenyl)-pyrrolo[2,1-f][1,2,4]triazin-2-yl]-amine] | < 100 nM | < 100 nM
CN1CCN(c2ccc(Nc3ncc4ccc(-c5ccc(CN6CCS(=O)(=O)CC6)cc5)n4n3)cc2)CC1 [Example 1031, {7-[4-(1,1-Dioxo-1$1(6)-thiomorpholin-4-ylmethyl)-phenyl]-pyrrolo[2,1-f][1,2,4]triazin-2-yl}-[4-(4-methyl-piperazin-1-yl)-phenyl]-amine] | < 100 nM | < 100 nM
O=S1(=O)CCN(Cc2ccc(-c3ccc4cnc(Nc5ccc(N6CCOCC6)cc5)nn34)cc2)CC1 [Example 1032, {7-[4-(1,1-Dioxo-1$1(6)-thiomorpholin-4-ylmethyl)-phenyl]-pyrrolo[2,1-f][1,2,4]triazin-2-yl}-(4-morpholin-4-yl-phenyl)-amine] | 100 to 1000 nM | < 100 nM
c1ccc2ncc(-c3ccc4cnc(Nc5ccc(N6CCOCC6)cc5)nn34)cc2c1 [Example 1033, (4-Morpholin-4-yl-phenyl)-(7-quinolin-3-yl-pyrrolo[2,1-f][1,2,4]triazin-2-yl)-amine] | 1000 to 10000 nM | < 100 nM
Clc1ncccc1-c1ccc2cnc(Nc3ccc(N4CCOCC4)cc3)nn12 [Example 1034, [7-(2-Chloro-pyridin-3-yl)-pyrrolo[2,1-f][1,2,4]triazin-2-yl]-(4-morpholin-4-yl-phenyl)-amine] | 1000 to 10000 nM | < 100 nM
CN(C)Cc1ccccc1-c1ccc2cnc(Nc3ccc(N4CCOCC4)cc3)nn12 [Example 1035, [7-(2-Dimethylaminomethyl-phenyl)-pyrrolo[2,1-f][1,2,4]triazin-2-yl]-(4-morpholin-4-yl-phenyl)-amine] | 1000 to 10000 nM | 100 to 1000 nM
CN1CCN(c2ccc(Nc3ncc4ccc(-c5cccnc5Cl)n4n3)cc2)CC1 [Example 1036, [7-(2-Chloro-pyridin-3-yl)-pyrrolo[2,1-f][1,2,4]triazin-2-yl]-[4-(4-methyl-piperazin-1-yl)-phenyl]-amine] | 100 to 1000 nM | < 100 nM
CN1CCN(c2ccc(Nc3ncc4ccc(-c5cnc6ccccc6c5)n4n3)cc2)CC1 [Example 1037, [4-(4-Methyl-piperazin-1-yl)-phenyl]-(7-quinolin-3-yl-pyrrolo[2,1-f][1,2,4]triazin-2-yl)-amine] | < 100 nM | < 100 nM
Cc1ccncc1-c1ccc2cnc(Nc3ccc(N4CCOCC4)cc3)nn12 [Example 1038, [7-(4-Methyl-pyridin-3-yl)-pyrrolo[2,1-f][1,2,4]triazin-2-yl]-(4-morpholin-4-yl-phenyl)-amine] | 1000 to 10000 nM | < 100 nM
Cc1ccncc1-c1ccc2cnc(Nc3ccc(N4CCN(C)CC4)cc3)nn12 [Example 1039, [4-(4-Methyl-piperazin-1-yl)-phenyl]-[7-(4-methyl-pyridin-3-yl)-pyrrolo[2,1-f][1,2,4]triazin-2-yl]-amine] | 100 to 1000 nM | < 100 nM
Fc1ncccc1-c1ccc2cnc(Nc3ccc(N4CCOCC4)cc3)nn12 [Example 1040, [7-(2-Fluoro-pyridin-3-yl)-pyrrolo[2,1-f][1,2,4]triazin-2-yl]-(4-morpholin-4-yl-phenyl)-amine] | 100 to 1000 nM | < 100 nM
CN1CCN(c2ccc(Nc3ncc4ccc(-c5cccnc5F)n4n3)cc2)CC1 [Example 1041, [7-(2-Fluoro-pyridin-3-yl)-pyrrolo[2,1-f][1,2,4]triazin-2-yl]-[4-(4-methyl-piperazin-1-yl)-phenyl]-amine] | 100 to 1000 nM | < 100 nM
Cc1nc(-c2ccc3cnc(Nc4ccc(N5CCN(C)CC5)cc4)nn23)cn1C [Example 1042, [7-(1,2-Dimethyl-1H-imidazol-4-yl)-pyrrolo[2,1-f][1,2,4]triazin-2-yl]-[4-(4-methyl-piperazin-1-yl)-phenyl]-amine] | 100 to 1000 nM | < 100 nM
CN1CCN(c2ccc(Nc3ncc4ccc(-c5cn(C)cn5)n4n3)cc2)CC1 [Example 1043, [7-(1-Methyl-1H-imidazol-4-yl)-pyrrolo[2,1-f][1,2,4]triazin-2-yl]-[4-(4-methyl-piperazin-1-yl)-phenyl]-amine] | 100 to 1000 nM | < 100 nM
Cc1nc(-c2ccc3cnc(Nc4ccc(N5CCOCC5)cc4)nn23)cn1C [Example 1044, [7-(1,2-Dimethyl-1H-imidazol-4-yl)-pyrrolo[2,1-f][1,2,4]triazin-2-yl]-(4-morpholin-4-yl-phenyl)-amine] | 1000 to 10000 nM | < 100 nM
Cn1cnc(-c2ccc3cnc(Nc4ccc(N5CCOCC5)cc4)nn23)c1 [Example 1045, [7-(1-Methyl-1H-imidazol-4-yl)-pyrrolo[2,1-f][1,2,4]triazin-2-yl]-(4-morpholin-4-yl-phenyl)-amine] | 1000 to 10000 nM | < 100 nM
Cc1cc(-c2ccc3cnc(Nc4ccc(N5CCN(C)CC5)cc4)nn23)cnc1F [Example 1046, [7-(6-Fluoro-5-methyl-pyridin-3-yl)-pyrrolo[2,1-f][1,2,4]triazin-2-yl]-[4-(4-methyl-piperazin-1-yl)-phenyl]-amine] | 100 to 1000 nM | < 100 nM
Cc1cc(-c2ccc3cnc(Nc4ccc(N5CCOCC5)cc4)nn23)cnc1F [Example 1047, [7-(6-Fluoro-5-methyl-pyridin-3-yl)-pyrrolo[2,1-f][1,2,4]triazin-2-yl]-(4-morpholin-4-yl-phenyl)-amine] | 1000 to 10000 nM | < 100 nM
CN1CCN(c2ccc(Nc3ncc4ccc(-c5cccc(CN(C)S(C)(=O)=O)c5)n4n3)cc2)CC1 [Example 1048, N-Methyl-N-(3-{2-[4-(4-methyl-piperazin-1-yl)-phenylamino]-pyrrolo[2,1-f][1,2,4]triazin-7-yl}-benzyl)-methanesulfonamide] | 100 to 1000 nM | < 100 nM
CS(=O)(=O)c1cccc(-c2ccc3cnc(Nc4ccc(CN5CCS(=O)(=O)CC5)cc4)nn23)c1 [Example 1049, [4-(1,1-Dioxo-1$1(6)-thiomorpholin-4-ylmethyl)-phenyl]-[7-(3-methanesulfonyl-phenyl)-pyrrolo[2,1-f][1,2,4]triazin-2-yl]-amine] | 1000 to 10000 nM | < 100 nM
O=S1(=O)CCN(Cc2ccc(Nc3ncc4ccc(-c5cccnc5)n4n3)cc2)CC1 [Example 1050, [4-(1,1-Dioxo-1$1(6)-thiomorpholin-4-ylmethyl)-phenyl]-(7-pyridin-3-yl-pyrrolo[2,1-f][1,2,4]triazin-2-yl)-amine] | 1000 to 10000 nM | < 100 nM
COc1ccc(-c2ccc3cnc(Nc4ccc(CN5CCS(=O)(=O)CC5)cc4)nn23)cn1 [Example 1051, [4-(1,1-Dioxo-1$1(6)-thiomorpholin-4-ylmethyl)-phenyl]-[7-(6-methoxy-pyridin-3-yl)-pyrrolo[2,1-f][1,2,4]triazin-2-yl]-amine] | > 10000 nM | < 100 nM
CS(=O)(=O)Nc1cccc(-c2ccc3cnc(Nc4ccc(CN5CCS(=O)(=O)CC5)cc4)nn23)c1 [Example 1052, N-(3-{2-[4-(1,1-Dioxo-1 $1(6)-thiomorpholin-4-ylmethyl)-phenylamino]-pyrrolo[2,1-f][1,2,4]triazin-7-yl}-phenyl)-methanesulfonamide] | 100 to 1000 nM | < 100 nM
CC(=O)Nc1cccc(Nc2ncc3ccc(-c4cccc(CN(C)S(C)(=O)=O)c4)n3n2)c1 [Example 1053, N-[3-(7-{3-[(Methanesulfonyl-methyl-amino)-methyl]-phenyl}-pyrrolo[2,1-f][1,2,4]triazin-2-ylamino)-phenyl]-acetamide] | 1000 to 10000 nM | < 100 nM
CN(Cc1cccc(-c2ccc3cnc(Nc4ccc5c(c4)NC(=O)C5(C)C)nn23)c1)S(C)(=O)=O [Example 1054, N-{3-[2-(3,3-Dimethyl-2-oxo-2,3-dihydro-1H-indol-6-ylamino)-pyrrolo[2,1-f][1,2,4]triazin-7-yl]-benzyl}-N-methyl-methanesulfonamide] | > 10000 nM | < 100 nM
CC(C)(C)NS(=O)(=O)c1cccc(-c2ccc3cnc(Nc4ccc(C5CCN(CC(N)=O)CC5)cc4)nn23)c1 [Example 1055, 2-(4-{4-[7-(3-tert-Butylsulfamoyl-phenyl)-pyrrolo[2,1-f][1,2,4]triazin-2-ylamino]-phenyl}-piperidin-1-yl)-acetamide] | 100 to 1000 nM | < 100 nM
CN1CCN(c2ccc(Nc3ncc4ccc(-c5ccc(CN6CCS(=O)(=O)CC6)nc5)n4n3)cc2)CC1 [Example 1056, {7-[6-(1,1-Dioxo-1$1(6)-thiomorpholin-4-ylmethyl)-pyridin-3-yl]-pyrrolo[2,1-f][1,2,4]triazin-2-yl}-[4-(4-methyl-piperazin-1-yl)-phenyl]-amine] | 100 to 1000 nM | < 100 nM
